# Data from patent US20080125466A1, “Aryl-Substituted Benzo[D]Isothiazol-3-Ylamine Analogues” (NEUROGEN CORPORATION, priority 2003, published 2008).
# Target: T1, human capsaicin receptor (Homo sapiens, UniProt Q8NER1)
# T1 construct: transfected with the pBK-CMV expression construct encoding the full length human capsaicin receptor; expressed in transfected cells
# Assay: Calcium mobilization assay (antagonist and agonist activity)
# Format: cell-based
# Settings: capsaicin as positive control in agonist assay; read-out: approximate EC90 concentration
# Description: This Example illustrates representative calcium mobilization assays for use in evaluating test compounds for agonist and antagonist activity.
# The culture medium is emptied from the 96 well plates and FLUO-3 AM calcium sensitive dye (Molecular Probes, Eugene, Oreg.) is added to each well (dye solution: 1 mg FLUO-3 AM, 440 μL DMSO and 440 μl 20% pluronic acid in DMSO, diluted 1:250 in Krebs-Ringer HEPES (KRH) buffer (25 mM HEPES, 5 mM KCl, 0.96 mM NaH2PO4, 1 mM MgSO4, 2 mM CaCl2, 5 mM glucose, 1 mM probenecid, pH 7.4), 50 μl diluted solution per well). Plates are covered with aluminum foil and incubated at 37° C. for 1-2 hours in an environment containing 5% CO2. […]
# To measure the ability of a test compound to agonize or antagonize a calcium mobilization response in cells expressing capsaicin receptors to capsaicin or other vanilloid agonist, the EC50 of the agonist capsaicin is first determined. […] Capsaicin-induced calcium mobilization is monitored using either FLUOROSKAN ASCENT (Labsystems; Franklin, Mass.) or FLIPR (fluorometric imaging plate reader system; Molecular Devices, Sunnyvale, Calif.) instruments. […]
# In this equation, y is the maximum fluorescence signal, x is the concentration of the agonist or antagonist (in this case, capsaicin), a is the Emax, b corresponds to the EC50 value and c is the Hill coefficient. […]
# T1 sequence (Q8NER1 whole entry): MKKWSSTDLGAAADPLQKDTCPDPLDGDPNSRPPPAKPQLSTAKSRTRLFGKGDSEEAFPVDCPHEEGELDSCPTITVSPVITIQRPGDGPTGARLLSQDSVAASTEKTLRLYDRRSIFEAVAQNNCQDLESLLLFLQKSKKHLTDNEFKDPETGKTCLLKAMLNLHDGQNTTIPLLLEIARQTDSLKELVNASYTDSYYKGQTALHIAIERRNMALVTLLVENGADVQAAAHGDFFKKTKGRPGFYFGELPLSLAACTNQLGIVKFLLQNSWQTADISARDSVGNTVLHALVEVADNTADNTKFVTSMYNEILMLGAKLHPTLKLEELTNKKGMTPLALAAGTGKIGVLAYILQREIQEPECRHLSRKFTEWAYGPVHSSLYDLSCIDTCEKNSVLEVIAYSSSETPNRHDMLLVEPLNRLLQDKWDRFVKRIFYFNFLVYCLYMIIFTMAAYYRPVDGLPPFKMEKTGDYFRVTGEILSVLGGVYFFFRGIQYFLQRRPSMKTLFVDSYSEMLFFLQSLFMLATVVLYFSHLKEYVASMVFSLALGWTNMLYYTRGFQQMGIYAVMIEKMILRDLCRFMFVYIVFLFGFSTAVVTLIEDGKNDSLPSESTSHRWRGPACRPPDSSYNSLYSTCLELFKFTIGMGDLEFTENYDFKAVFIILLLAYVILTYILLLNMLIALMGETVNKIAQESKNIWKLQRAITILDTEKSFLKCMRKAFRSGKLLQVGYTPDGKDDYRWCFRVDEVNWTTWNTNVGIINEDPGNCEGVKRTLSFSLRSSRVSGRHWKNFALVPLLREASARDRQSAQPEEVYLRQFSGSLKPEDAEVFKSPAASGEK
smiles,measurement,value
COc1cc(CNC(=O)CCCC/C=C/C(C)C)ccc1O [capsaicin],EC90,~100 nM
